Values of other authors in US20250205258A1 (priority 2022, published 2025).

What was measured:
[1] = tested on: liver cancer stem cell markers CD133, CD44, and ESA; settings: cited from earlier work
[2] = tested on: neuroblastoma cells U87; settings: through both apoptosis and necrosis; cited from earlier work
[3] = tested on: STAT3 signaling pathway; settings: by inhibiting the STAT3 signaling pathway; cited from earlier work
[4] = tested on: melanoma A375 cells; settings: concentration- and time-dependent; cited from earlier work
[5] = tested on: ovarian cancer cells SK—OV-3; settings: concentration- and time-dependent, EGFR/AKT/ERK signaling pathway; cited from earlier work

C[C@]12CC[C@H](O)C[C@H]1CC[C@@H]1[C@@H]2CC[C@]2(C)[C@@H](c3ccc(=O)oc3)CC[C@]12O [bufalin, Bufalin]
expression of liver cancer stem cell markers CD133, CD44, and ESA [1]: significantly inhibit | death of neuroblastoma cells U87 [2]: induces the death | tumor microenvironment-mediated angiogenesis [3]: suppress tumor microenvironment-mediated angiogenesis | proliferation of melanoma A375 cells [4]: inhibits the proliferation | proliferation of ovarian cancer cells SK—OV-3 [5]: inhibit the proliferation
